# Source: US6750244B2, “Compounds active at a novel site on receptor-operated calcium channels useful for treatment of neurological disorders and diseases” (NPS Pharmaceuticals, Inc., priority 1993, dated 2004)
# pIC50: −log10 of the molar value. Like-named read-outs stand apart in the source and are kept apart here.
# Columns and labels:
# NMDA receptor [1] = details: rat hippocampal slices
# Description: Glutamate-mediated transmission at synapses of Schaffer collateral fibers and CA1 pyramidal cells was measured in slices of rat brain containing the hippocampus. This assay measures electrophysiologically the postsynaptic depolarization caused by the presynaptic release of glutamate, and can readily distinguish synaptic transmission mediated by NMDA or AMPA receptors.
# NMDA receptor [2] = assay: Inhibition of NMDA/glycine-induced increases in intracellular calcium in cultured rat cerebellar granule cells (RCGC); format: cell-based
# mouse cortical neurons = assay: cells; details: Cortical neurone, read-out: IC50, prevention of NMDA-induced cell death
# Description: The effective concentrations of NMDA receptor antagonists vary depending on the particular experimental conditions and the type of cell studied (cortical, hippocampal, striatal).
# [3] = system: mean arterial blood pressure; details: for Drop in Mean Arterial Blood Pressure / Drop in Mean Arterial Blood Pressure: duration: 1.5 μmoles/kg i.v., rats
# NMDA-induced seizures = assay: animal or person; details: Mus musculus, sc, read-out: ED50 for NMDA stimulus
# Description: (§1) The first two models used DBA/2 mice which are prone to audiogenic seizures. […] The test substances were administered 15-30 min before the convulsant stimulus.
# [4] = system: forebrain ischemia (neuronal cell death); format: in vivo, gerbil
# Description: Blood flow to the brain was interrupted for 7 minutes by clamping the carotid arteries. The test compounds were administered as a 'single dose given intraperitoneally (i.p.) 30 minutes after reinstating blood flow. During the course of these experiments, the core body temperature of the animals was maintained at 37° C. to prevent any hypothermic reaction. […]
# motor performance [5] = details: 20 mg/kg s.c.
# Description: In this assay, animals are placed on a wire-holed grid suspended from a rotating metal bar which can be inverted. The animals are then scored for their ability to climb to the top or hang on to the grid. […] This assay provides an index of “behavioral disruption” that may result from ataxia, loss of the righting reflex, sedation, or muscle relaxation.
# audiogenic seizures = assay: animal or person; format: in vivo, DBA/2 mice; details: for EC50 in the audiogenic seizure model: mouse, in vivo
# Description: as §1
# L-type calcium channel [6] = assay: Inhibition of KCl depolarization-induced increases in intracellular calcium in cultured rat cerebellar granule cells; format: cell-based; details: cerebellar granule cells
# Description: (§2) The ability of arylalkylamines to inhibit dihydropyridine-sensitive Ca^2+ channels was examined in cerebellar granule cells and a rat aortic smooth muscle cell line, A7r5 cells.
# L-type calcium channel [7] = system: T1, L-type calcium channel; assay: as above; format: cell-based; details: read-out: L-type calcium channel: estimated IC50, KCl depolarization-induced increases in intracellular calcium; cultured rat cerebellar granule cells
# T1 construct: L-type calcium channel: estimated IC50, KCl depolarization-induced increases in intracellular calcium; other: cultured
# Description: as §2
# thermal nociception [8] = format: in vivo, rats
# Description: In these experiments, a 52° C. hot plate was used as the nociceptive stimulus.
# [9] = biological target: NMDA receptor-ionophore complex (site labeled by [3H]MK-801); assay: Inhibition of [3H]MK-801 binding in rat cortical/hippocampal washed membrane preparations; details: read-out: IC50 (μM) vs. [3H]MK-801; rat cortical/hippocampal washed membranes
# [10] = system: acetic acid-induced writhing; format: in vivo, mice; details: i.p.
# thermal nociception [11] = format: in vivo, rats; remark: listed apart in the source
# Description: In this standard assay, the thermal nociceptive stimulus was 52° C. warm water with the latency to tail flick or withdrawal taken as the endpoint.
# induction of LTP = system: induction of LTP; parameters: species or system rat
# temporary focal ischemia = assay: Temporary focal cerebral ischemia (middle cerebral artery occlusion, suture withdrawn after 2 hr); format: in vivo, rat; details: 10 mg/kg i.p. immediately after onset of ischemic event; 72 hr
# Description: In a fourth model of focal cerebral ischemia in the rat, the middle cerebral artery was temporarily occluded by passing a small piece of suture thread through the carotid artery to the region of the middle cerebral artery. The suture thread was withdrawn after an ischemic period of 2 hr. Core body temperature was maintained at 37° C. […]
# [12] = system: formalin-induced flinching; format: in vivo, Sprague-Dawley rats
# sound-induced seizures = assay: Sound-induced seizures in Frings mice (reflex epilepsy); format: in vivo; details: intracerebroventricular (i.c.v.) injection
# learning [13] = assay: Morris water maze task; format: in vivo, rats; details: 10 mg/kg i.p. daily for 5 days
# Description: In a second series of experiments, the effect of Compound 4 on learning in the Morris water maze task was evaluated. In this test, a hidden platform was placed in a fixed location in a circular steel tank, and submerged 2 cm below the surface of the water. Each rat was given 3 trials per day with a 10 min intertrial interval for 5 days. A trial was initiated by placing the rat in the water, nose facing the wall of the tank, at one of three predetermined starting locations. The order of the start location was varied daily. Learning was measured as a decrease in time required to swim to the platform. […] The animals remained on the platform for 10 sec before being removed from the tank. Ten min after the last training trial on day 5, the animals received a probe test. The platform was removed for this 1 trial task and the animals were allowed to swim for 60 sec to assess the spatial bias for the platform location. Two measures were recorded from this task: latency to first crossing the area where the platform had been, and total number of crossings. A total of 5 injections of Compound 4 were given to each rat. In the first series of experiments, Compound 4 was administered at 10 mg/kg i.p. daily for 5 days. […] In a subsequent study, six animals received 1 mg/kg i.p. for the first 4 days of training, while two animals received 5 mg/kg i.p. during this period. […]
# focal ischemia = assay: Photothrombotic (Rose Bengal) model of focal cerebral ischemia; format: in vivo, rat; details: 10 mg/kg i.p. 30 min after the ischemic event
# Description: In a third model of focal cerebral ischemia in the rat, an ischemic infarct was produced by a photothrombotic method using the dye Rose Bengal.
# permanent focal ischemia = assay: Permanent focal cerebral ischemia (middle cerebral artery occlusion, suture); format: in vivo, rat; details: 10 mg/kg i.p. immediately after onset of ischemic event; 24 hr
# Description: In the second study of focal cerebral ischemia in the rat, the middle cerebral artery was permanently occluded by passing a small piece of suture thread through the carotid artery to the region of the middle cerebral artery. Core body temperature was maintained at 37° C. Compound 4, 10 mg/kg i.p. administered immediately after the onset of the ischemic event, produced a statistically significant reduction in the volume of the brain infarct (20%) recorded 24 hr later.
# motor performance [14] = assay: Acute motor impairment (rotorod) in mice; details: Frings mice, i.c.v. injection
# Description: In this assay, Frings and CF1 mice were injected with test compound and placed on a knurled rod which rotated at a speed of 6 rpm. The ability of the mice to maintain equilibrium for long periods of time was determined; those mice that were unable to maintain equilibrium on the rotorod for 1 min in each of 3 trials were considered impaired.
# learning [15] = assay: T maze learning test; details: i.p. 15 min before testing
# Description: In this test, rats were trained to alternate turning in a T maze for a food reward.
# focal cerebral ischemia = assay: Middle cerebral artery occlusion, permanent, surgical ligation; format: in vivo, rat; details: maximally effective dose 10 mg/kg; 24 hours
# Description: In the first study using this stroke model, one cerebral artery was permanently occluded by surgical ligation. The test compounds were administered 30 minutes after the occlusion by a single intraperitoneal (i.p.) injection. During the course of these experiments, the core body temperature of the animals was maintained at 37° C. to prevent any hypothermic reaction. Brains were assessed histologically for neuronal cell loss 24 hours later. Infarct volumes were calculated using the area of histological pallor from 10 slides and integrating the distance between each successive section.
# [16] = read-out: IC50 against NMDA receptor-mediated increases in [Ca2+]i in cerebellar granule cells
smiles,measurement,setting,value
NCCCNCCCCNCCCNCCCNCCCNC(=O)Cc1c[nH]c2ccccc12 [Compound 2],Suppression of NMDA Receptor-Mediated Synaptic Transmission (concentration which suppresses),NMDA receptor [1],10 to 30 µM
same,IC50,"NMDA receptor [2]; read-out: IC50 (μM) vs. NMDA; NMDA/glycine-induced increases in intracellular calcium, cultured rat cerebellar granule cells",0.192 µM
same,pIC50,NMDA receptor [2]; [16],6.79
same,pIC50,mouse cortical neurons,4.52
same,Drop in Mean Arterial Blood Pressure,[3],40 mm Hg at
same,Drop in Mean Arterial Blood Pressure: duration,[3],"i.v., 120 min"
same,ED50,NMDA-induced seizures,0.083 mg/kg
same,"protection against neuronal cell death (CA1 of hippocampus, striatum and neocortex)","[4]; 20 mg/kg i.p. 30 minutes after reinstating blood flow, 4 days",significantly (p<0.05) protected against neuronal cell death
same,protection of the striatum,[4]; doses as low as 1 mg/kg,> 98%
same,motor performance in the inverted grid assay,motor performance [5],without effect
same,ED50,"audiogenic seizures; Mus musculus, sc, read-out: ED50 for audiogenic stimulus",0.13 mg/kg
same,concentrations inhibiting depolarization-induced increases in [Ca2+]i relative to those blocking responses to NMDA,L-type calcium channel [6],100 fold
same,pIC50,L-type calcium channel [7],4.62
NCCCNCCCCNCCCNCCCNCCCNC(=O)Cc1c[nH]c2ccc(F)cc12 [Compound 4],Suppression of NMDA Receptor-Mediated Synaptic Transmission (concentration which suppresses),NMDA receptor [1],10 to 100 µM
same,"antinociceptive effect, hot plate",thermal nociception [8]; 0.3-3 nmol i.th.,dose- and time-dependent antinociceptive effects
same,IC50,[9],89 µM
same,IC50,"NMDA receptor [2]; NMDA/glycine-induced increases in intracellular calcium, cultured rat cerebellar granule cells; read-out: IC50 (μM) vs. NMDA",0.184 µM
same,"IC50, inhibition of acetic acid-induced writhing",[10],1 mg/kg
same,Drop in Mean Arterial Blood Pressure,[3],40 mm Hg at
same,Drop in Mean Arterial Blood Pressure: duration,[3],"i.v., 120 min"
same,drop in mean arterial pressure,[3]; 10 mg/kg i.p.,40 mm Hg
same,persistence of the drop in mean arterial pressure,[3]; 10 mg/kg i.p.,90 to 120 min
same,"analgesic effect, tail flick (52° C. warm water)",thermal nociception [11]; 0.3-3 nmol i.th.,dose- and time-dependent analgesic effect
same,LTP Assay (block of the induction of LTP),induction of LTP; at 100 μM,no block
same,reduction in neuronal death / protection in region CA1 of the hippocampus,"[4]; 10 mg/kg, 7 days post-ischemia",90%
same,reduction in the volume of the brain infarct,temporary focal ischemia,37%
same,"late-phase flinching, administered after the formalin","[12]; 0.3-10 nmol i.th., 10 min after formalin",significance achieved at the 3 and 10 nmol doses
same,"flinching behaviors, pretreatment to formalin","[12]; 0.3-10 nmol i.th., 10 min prior to formalin",effectively inhibited both early- and late-phase flinching behaviors
same,"IC50, prevention of sound-induced seizures",sound-induced seizures,4.77 µg
same,learning in the Morris water maze,learning [13],impaired learning
same,reduction in the volume of the infarct,focal ischemia,20%
same,reduction in the volume of the brain infarct,permanent focal ischemia,20%
same,"TD50, acute motor impairment",motor performance [14],8 to 16 µg
same,EC50 in the audiogenic seizure model,audiogenic seizures,0.08 mg/kg
"C[C@]12N[C@H](Cc3ccccc31)c1ccccc12 [MK-801, reference compound]","antinociceptive effect, hot plate",thermal nociception [8]; 3-30 nmol,ineffective
same,ability to make the correct choices in the T maze,learning [15],progressively decreased the number of correct choices
same,protection against neuronal cell loss,focal cerebral ischemia,approximately 15%
same,"analgesic effect, tail flick (52° C. warm water)",thermal nociception [11]; 3-30 nmol,ineffective
same,induction of LTP (p<0.05),induction of LTP; slices superfused 30-60 min,significantly blocked
same,EC50 in the audiogenic seizure model,audiogenic seizures,0.02 mg/kg
